According to PubChem BioAssay (NCI):
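Step 1: Grow cells in 96-well plates. Step 2: Expose to compound for 48 hours at 5 concentrations. Step 3: Interpolate endpoints linearly; if unreached, use highest concentration. TGI denotes the concentration required for complete inhibition of growth.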

Experiments:
Assay in all cases: NCI anticancer screen, dose series, 48 h
SW-620 colon = system: SW-620 colon
HOP-92 NSCLC = system: HOP-92 NSCLC
KM20L2 colon = system: KM20L2 colon
KM12 colon = system: KM12 colon
A498 renal = system: A498 renal
DMS 273 small cell lung = system: DMS 273 small cell lung
OVCAR-4 ovarian = system: OVCAR-4 ovarian
OVCAR-5 ovarian = system: OVCAR-5 ovarian
HT29 colon = system: HT29 colon
SNB-19 CNS = system: SNB-19 CNS
SNB-75 CNS = system: SNB-75 CNS
SNB-78 CNS = system: SNB-78 CNS
COLO 205 colon = system: COLO 205 colon
RXF-631 renal = system: RXF-631 renal
LOX IMVI melanoma = system: LOX IMVI melanoma
SK-MEL-28 melanoma = system: SK-MEL-28 melanoma
SN12C renal = system: SN12C renal
HL-60(TB) leukemia = system: HL-60(TB) leukemia
U251 CNS = system: U251 CNS
M14 melanoma = system: M14 melanoma
OVCAR-8 ovarian = system: OVCAR-8 ovarian
TK-10 renal = system: TK-10 renal
ACHN renal = system: ACHN renal
SF-268 CNS = system: SF-268 CNS
HCC-2998 colon = system: HCC-2998 colon
HCT-116 colon = system: HCT-116 colon
EKVX NSCLC = system: EKVX NSCLC
SR leukemia = system: SR leukemia
UACC-257 melanoma = system: UACC-257 melanoma
NCI-H23 lung = system: NCI-H23 lung
MALME-3M melanoma = system: MALME-3M melanoma
A549 NSCLC = system: A549 NSCLC
SF-539 CNS = system: SF-539 CNS
HOP-18 NSCLC = system: HOP-18 NSCLC
RXF 393 renal = system: RXF 393 renal
HCT-15 colon = system: HCT-15 colon
RPMI-8226 leukemia = system: RPMI-8226 leukemia
SK-MEL-2 melanoma = system: SK-MEL-2 melanoma
K-562 leukemia = system: K-562 leukemia
LXFL 529 NSCLC = system: LXFL 529 NSCLC
CCRF-CEM leukemia = system: CCRF-CEM leukemia
NCI-H460 lung = system: NCI-H460 lung
IGROV1 ovarian = system: IGROV1 ovarian
MOLT-4 leukemia = system: MOLT-4 leukemia
CAKI-1 renal = system: CAKI-1 renal
NCI-H226 lung = system: NCI-H226 lung
SF-295 CNS = system: SF-295 CNS
NCI-H522 lung = system: NCI-H522 lung
HOP-62 NSCLC = system: HOP-62 NSCLC
786-0 renal = system: 786-0 renal
UO-31 renal = system: UO-31 renal
DLD-1 colon = system: DLD-1 colon
M19-MEL melanoma = system: M19-MEL melanoma
OVCAR-3 ovarian = system: OVCAR-3 ovarian

**Q.** Which TGI (SW-620 colon) does the source give for `O=C(Nc1cccc2c1[nH]c1c(-c3ccccc3)nccc12)c1ccccc1[N+](=O)[O-]` here?
**A.** > 100 µM

**Q.** What about the TGI (HOP-92 NSCLC) of the same compound?
**A.** 9.05 µM

**Q.** What about the TGI (KM20L2 colon) of the same compound?
**A.** > 100 µM

**Q.** And the TGI (KM12 colon)?
**A.** > 100 µM

**Q.** What about the TGI (A498 renal) of the same compound?
**A.** 60.3 µM

**Q.** What about the TGI (DMS 273 small cell lung) of the same compound?
**A.** > 100 µM

**Q.** What about the TGI (OVCAR-4 ovarian) of the same compound?
**A.** > 100 µM

**Q.** What about the TGI (OVCAR-5 ovarian) of the same compound?
**A.** 63.2 µM

**Q.** What about the TGI (HT29 colon) of the same compound?
**A.** > 100 µM

**Q.** And the TGI (SNB-19 CNS)?
**A.** > 100 µM

**Q.** What about the TGI (SNB-75 CNS) of the same compound?
**A.** > 100 µM

**Q.** And the TGI (SNB-78 CNS)?
**A.** > 100 µM

**Q.** What about the TGI (COLO 205 colon) of the same compound?
**A.** > 100 µM

**Q.** What about the TGI (RXF-631 renal) of the same compound?
**A.** > 100 µM

**Q.** What about the TGI (LOX IMVI melanoma) of the same compound?
**A.** > 100 µM

**Q.** What about the TGI (SK-MEL-28 melanoma) of the same compound?
**A.** > 100 µM

**Q.** And the TGI (SN12C renal)?
**A.** > 100 µM

**Q.** What about the TGI (HL-60(TB) leukemia) of the same compound?
**A.** > 100 µM

**Q.** And the TGI (U251 CNS)?
**A.** > 100 µM

**Q.** And the TGI (M14 melanoma)?
**A.** > 100 µM

**Q.** And the TGI (OVCAR-8 ovarian)?
**A.** > 100 µM

**Q.** What about the TGI (TK-10 renal) of the same compound?
**A.** > 100 µM

**Q.** And the TGI (ACHN renal)?
**A.** > 100 µM

**Q.** And the TGI (SF-268 CNS)?
**A.** > 100 µM

**Q.** What about the TGI (HCC-2998 colon) of the same compound?
**A.** > 100 µM

**Q.** What about the TGI (HCT-116 colon) of the same compound?
**A.** > 100 µM

**Q.** And the TGI (EKVX NSCLC)?
**A.** > 100 µM

**Q.** And the TGI (SR leukemia)?
**A.** > 100 µM

**Q.** What about the TGI (UACC-257 melanoma) of the same compound?
**A.** > 100 µM

**Q.** And the TGI (NCI-H23 lung)?
**A.** > 100 µM

**Q.** And the TGI (MALME-3M melanoma)?
**A.** > 100 µM

**Q.** What about the TGI (A549 NSCLC) of the same compound?
**A.** > 100 µM

**Q.** What about the TGI (SF-539 CNS) of the same compound?
**A.** 97 µM

**Q.** What about the TGI (HOP-18 NSCLC) of the same compound?
**A.** > 100 µM

**Q.** And the TGI (RXF 393 renal)?
**A.** 90.2 µM

**Q.** And the TGI (HCT-15 colon)?
**A.** 41.2 µM

**Q.** And the TGI (RPMI-8226 leukemia)?
**A.** > 100 µM

**Q.** What about the TGI (SK-MEL-2 melanoma) of the same compound?
**A.** > 100 µM

**Q.** What about the TGI (K-562 leukemia) of the same compound?
**A.** > 100 µM

**Q.** What about the TGI (LXFL 529 NSCLC) of the same compound?
**A.** > 100 µM

**Q.** And the TGI (CCRF-CEM leukemia)?
**A.** > 100 µM

**Q.** What about the TGI (NCI-H460 lung) of the same compound?
**A.** 78.1 µM

**Q.** And the TGI (IGROV1 ovarian)?
**A.** > 100 µM

**Q.** What about the TGI (MOLT-4 leukemia) of the same compound?
**A.** > 100 µM

**Q.** And the TGI (CAKI-1 renal)?
**A.** 70.4 µM

**Q.** And the TGI (NCI-H226 lung)?
**A.** 9.7 µM

**Q.** And the TGI (SF-295 CNS)?
**A.** 88 µM

**Q.** What does the source list for `CC1=CC(N2C(=O)C(C)=CC2O)NC1=O` (stereo not given)?
**A.** TGI (SW-620 colon): > 100 µM; TGI (HOP-92 NSCLC): > 100 µM; TGI (NCI-H522 lung): > 100 µM; TGI (KM20L2 colon): > 100 µM; TGI (KM12 colon): > 100 µM; TGI (HOP-62 NSCLC): > 100 µM; TGI (OVCAR-4 ovarian): > 100 µM; TGI (786-0 renal): > 100 µM; TGI (OVCAR-5 ovarian): > 100 µM; TGI (HT29 colon): > 100 µM; TGI (SNB-19 CNS): > 100 µM; TGI (SNB-75 CNS): > 100 µM; TGI (SNB-78 CNS): > 100 µM; TGI (COLO 205 colon): > 100 µM; TGI (UO-31 renal): > 100 µM; TGI (LOX IMVI melanoma): > 100 µM; TGI (SK-MEL-28 melanoma): > 100 µM; TGI (SN12C renal): > 100 µM; TGI (HL-60(TB) leukemia): > 100 µM; TGI (U251 CNS): > 100 µM; TGI (M14 melanoma): > 100 µM; TGI (OVCAR-8 ovarian): > 100 µM; TGI (TK-10 renal): > 100 µM; TGI (SF-268 CNS): > 100 µM; TGI (HCC-2998 colon): > 100 µM; TGI (HCT-116 colon): > 100 µM; TGI (EKVX NSCLC): > 100 µM; TGI (SR leukemia): > 100 µM; TGI (UACC-257 melanoma): > 100 µM; TGI (NCI-H23 lung): > 100 µM; TGI (MALME-3M melanoma): > 100 µM; TGI (DLD-1 colon): > 100 µM; TGI (A549 NSCLC): > 100 µM; TGI (SF-539 CNS): > 100 µM; TGI (RXF 393 renal): > 100 µM; TGI (M19-MEL melanoma): > 100 µM; TGI (OVCAR-3 ovarian): > 100 µM; TGI (SK-MEL-2 melanoma): > 100 µM; TGI (LXFL 529 NSCLC): > 100 µM; TGI (NCI-H460 lung): > 100 µM; TGI (CAKI-1 renal): > 100 µM; TGI (NCI-H226 lung): > 100 µM; TGI (SF-295 CNS): > 100 µM
